Data from ChEMBL document CHEMBL4049435, “Development of a Series of Kynurenine 3-Monooxygenase Inhibitors Leading to a Clinical Candidate for the Treatment of Acute Pancreatitis” (J Med Chem, 2017).
Values belong to the molecule of their own block, whether it stands above or below them. The source made the active and inactive calls. The calls are words filed in the database; no cut-off is given here.

What was measured:
Rattus norvegicus [1] = test: Organoprotective activity against acute pancreatitis-induced kidney damage in rat assessed as decrease in plasma creatinine levels at 20 mg/kg, iv as bolus dose administered 1 hr post acute pancreatitis induction followed by drug administration at 2.2 mg/kg/hr, iv as infusion over 5 hrs; format: functional, organism-based
Rattus norvegicus [2] = test: Organoprotective activity against acute pancreatitis-induced pancreatic injury in rat assessed as decrease in serum amylase levels at 20 mg/kg, iv as bolus dose administered 1 hr post acute pancreatitis induction followed by drug administration at 2.2 mg/kg/hr, iv as infusion over 5 hrs; format: functional, organism-based
Rattus norvegicus [3] = test: (§1) Effect on circulating tryptophan levels in rat plasma at […], iv administered as bolus dose followed by […], iv infusion for 3 hrs; format: functional, organism-based
Rattus norvegicus [4] = test: Increase in kynurenine level in plasma of rat model of cerulean-induced acute pancreatitis at 20 mg/kg, iv administered as bolus dose followed by 2.2 mg/kg/hr 5 hrs iv infusion; format: functional, organism-based
Rattus norvegicus [5] = test: as §1; format: functional, organism-based; remark: listed apart in the source
Rattus norvegicus [6] = test: (§2) Organoprotective activity in lung of acute pancreatitis rat model assessed as alveolar-epithelial thickening at 20 mg/kg, iv as bolus dose administered 1 hr post acute pancreatitis induction followed by drug administration at 2.2 mg/kg/hr, iv as infusion over 5 hrs by haematoxylin/eosin stain based light microscopic analysis; format: functional, organism-based
Rattus norvegicus [7] = test: (§3) In vivo inhibition of KMO in rat assessed as increase in kynurenine levels in plasma at […], iv administered as bolus followed by […], iv infusion for 3 hrs; format: functional, organism-based
[8] = target: Kynurenine/alpha-aminoadipate aminotransferase, mitochondrial (Homo sapiens) (UniProt Q8N5Z0); test: Inhibition of KAT2 (unknown origin)
Homo sapiens = species on record: Homo sapiens; test: Inhibition of IDO (unknown origin)
Rattus norvegicus [9] = test: as §1; format: functional, organism-based; remark: listed apart in the source
Rattus norvegicus [10] = test: In vivo inhibition of KMO in iv dosed rat assessed as decrease in circulating 3-hydroxykynurenine levels in plasma measured post last dose; format: functional, organism-based
Rattus norvegicus [11] = test: as §3; format: functional, organism-based; remark: listed apart in the source
Rattus norvegicus [12] = test: Protection against multiple organ dysfunction syndrome in acute pancreatitis-induced rat assessed as decrease in stress response plasma glucose levels at 20 mg/kg, iv as bolus dose administered 1 hr post acute pancreatitis induction followed by drug administration at 2.2 mg/kg/hr, iv as infusion over 5 hrs; format: functional, organism-based
Rattus norvegicus [13] = test: as §3; format: functional, organism-based; remark: listed apart in the source
[14] = target: T1, Kynurenine--oxoglutarate transaminase 1 (Homo sapiens) (UniProt Q16773); test: Inhibition of KAT1 (unknown origin)
T1 sequence (whole entry): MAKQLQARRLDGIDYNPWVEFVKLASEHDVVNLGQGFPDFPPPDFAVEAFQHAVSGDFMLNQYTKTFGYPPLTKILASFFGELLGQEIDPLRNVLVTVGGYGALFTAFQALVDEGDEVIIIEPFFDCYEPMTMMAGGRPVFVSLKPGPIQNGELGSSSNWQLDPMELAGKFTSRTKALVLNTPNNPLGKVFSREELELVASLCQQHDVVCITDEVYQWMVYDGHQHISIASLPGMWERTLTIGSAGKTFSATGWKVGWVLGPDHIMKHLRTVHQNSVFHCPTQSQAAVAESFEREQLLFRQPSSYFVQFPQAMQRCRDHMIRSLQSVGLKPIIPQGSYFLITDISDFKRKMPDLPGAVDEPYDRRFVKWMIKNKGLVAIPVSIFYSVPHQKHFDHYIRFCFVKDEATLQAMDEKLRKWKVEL

[15] = target: Kynurenine 3-monooxygenase (Homo sapiens, UniProt O15229)
Rattus norvegicus [16] = test: Increase in anthranilic acid levels in iv dosed rat plasma measured post last dose; format: functional, organism-based
Rattus norvegicus [17] = test: Organoprotective activity in kidney of acute pancreatitis […] assessed as reduction in apoptotic cell count in the outer medullary stripe at 20 mg/kg, iv as bolus dose administered 1 hr post acute pancreatitis induction followed by drug administration at 2.2 mg/kg/hr, iv as infusion over 5 hrs by TUNEL staining analysis; format: functional, organism-based
[18] = target: T2, Kynureninase (Homo sapiens) (UniProt Q16719); test: Inhibition of kynureninase (unknown origin)
T2 sequence (whole entry): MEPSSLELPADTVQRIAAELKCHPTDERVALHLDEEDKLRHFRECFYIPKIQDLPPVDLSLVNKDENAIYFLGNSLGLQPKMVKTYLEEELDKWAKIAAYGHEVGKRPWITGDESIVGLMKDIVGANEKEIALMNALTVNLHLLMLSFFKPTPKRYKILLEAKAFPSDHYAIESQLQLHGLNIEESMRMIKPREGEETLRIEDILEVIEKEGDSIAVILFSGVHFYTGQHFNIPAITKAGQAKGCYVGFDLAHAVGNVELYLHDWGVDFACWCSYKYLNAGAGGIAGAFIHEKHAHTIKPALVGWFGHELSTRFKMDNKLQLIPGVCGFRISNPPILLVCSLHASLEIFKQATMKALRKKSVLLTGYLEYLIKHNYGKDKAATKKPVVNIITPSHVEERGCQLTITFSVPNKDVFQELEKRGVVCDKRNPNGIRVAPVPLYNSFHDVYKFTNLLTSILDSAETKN

Rattus norvegicus [19] = test: Decrease in 3-hydroxykynurenine level in plasma of rat model of cerulean-induced acute pancreatitis at 20 mg/kg, iv administered as bolus dose followed by 2.2 mg/kg/hr 5 hrs iv infusion; format: functional, organism-based
Rattus norvegicus [20] = test: Organoprotective activity in lung of acute pancreatitis rat model assessed as decrease in levels of protein leak in bronchoalveolar lavage fluid at 20 mg/kg, iv as bolus dose administered 1 hr post acute pancreatitis induction followed by drug administration at 2.2 mg/kg/hr, iv as infusion over 5 hrs; format: functional, organism-based
Rattus norvegicus [21] = test: Increase in kynurenic acid levels in iv dosed rat plasma measured post last dose; format: functional, organism-based
Rattus norvegicus [22] = test: as §2, with “inflammatory infiltrates” for “alveolar-epithelial thickening”; format: functional, organism-based
[23] = target: Tryptophan 2,3-dioxygenase (Homo sapiens) (UniProt P48775); test: Inhibition of TDO (unknown origin)
[24] = target: Kynurenine 3-monooxygenase (Rattus norvegicus, UniProt O88867); test: Inhibition of rat KMO expressed in HEK293 cells using kynurenine as substrate measured after 20 hrs by LC-MS/MS analysis; format: cell-based; settings: read-out: Ki(app)
Plasma [25] = test: (§4) Unbound fraction in rat plasma at […], iv administered as bolus dose followed by […], iv infusion for 3 hrs; format: ADME, organism-based; settings: in vivo
[26] = Half life in Beagle dog at 1 mg/kg, iv by LC-MS/MS analysis; format: ADME, organism-based, Canis lupus familiaris; settings: in vivo
[27] = Protein binding in Han-Wistar rat plasma at 1 mg/kg, iv by LC-MS/MS analysis; format: ADME, organism-based; settings: read-out: PPB (converted)
[28] = Clearance in Han-Wistar rat blood at 1 mg/kg, iv by LC-MS/MS analysis; format: ADME, organism-based; settings: whole blood
[29] = Half life in Han-Wistar rat at 1 mg/kg, iv by LC-MS/MS analysis; format: ADME, organism-based; settings: in vivo
[30] = Clearance in Beagle dog blood at 1 mg/kg, iv by LC-MS/MS analysis; format: ADME, organism-based, Canis lupus familiaris; settings: whole blood
[31] = Half life of the compound at pH 6 under oxidative condition; format: physicochemical
[32] = Volume of distribution in Beagle dog at 1 mg/kg, iv by LC-MS/MS analysis; format: ADME, organism-based, Canis lupus familiaris; settings: in vivo
[33] = Volume of distribution at steady state in Han-Wistar rat at 1 mg/kg, iv by LC-MS/MS analysis; format: ADME, organism-based; settings: in vivo, read-out: Vdss
[34] = Stability of the compound in presence of light measured after 12 hrs; format: physicochemical; settings: read-out: Stability
Plasma [35] = test: as §4; format: ADME, organism-based; settings: in vivo; remark: listed apart in the source
Plasma [36] = test: as §4; format: ADME, organism-based; settings: in vivo; remark: listed apart in the source
[37] = Drug uptake in plasma of rat model of cerulean-induced acute pancreatitis at 20 mg/kg, iv administered as bolus dose followed by 2.2 mg/kg/hr, iv infusion for 5 hrs; format: ADME, organism-based

Kynurenine/alpha-aminoadipate aminotransferase, mitochondrial (Homo sapiens), sequence (Q8N5Z0 30-425 limits assumed): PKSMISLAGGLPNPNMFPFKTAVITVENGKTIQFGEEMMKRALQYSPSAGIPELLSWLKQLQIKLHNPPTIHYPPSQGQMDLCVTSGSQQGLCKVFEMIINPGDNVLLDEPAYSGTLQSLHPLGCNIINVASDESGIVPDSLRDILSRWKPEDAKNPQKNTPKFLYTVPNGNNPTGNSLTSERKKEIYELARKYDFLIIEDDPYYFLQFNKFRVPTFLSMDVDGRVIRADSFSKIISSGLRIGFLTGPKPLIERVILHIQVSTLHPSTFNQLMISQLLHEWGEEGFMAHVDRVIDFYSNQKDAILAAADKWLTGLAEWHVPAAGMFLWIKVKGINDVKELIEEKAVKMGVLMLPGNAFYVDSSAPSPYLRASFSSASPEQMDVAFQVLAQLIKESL
Kynurenine 3-monooxygenase (Homo sapiens, UniProt O15229), sequence (O15229 whole entry, looked up): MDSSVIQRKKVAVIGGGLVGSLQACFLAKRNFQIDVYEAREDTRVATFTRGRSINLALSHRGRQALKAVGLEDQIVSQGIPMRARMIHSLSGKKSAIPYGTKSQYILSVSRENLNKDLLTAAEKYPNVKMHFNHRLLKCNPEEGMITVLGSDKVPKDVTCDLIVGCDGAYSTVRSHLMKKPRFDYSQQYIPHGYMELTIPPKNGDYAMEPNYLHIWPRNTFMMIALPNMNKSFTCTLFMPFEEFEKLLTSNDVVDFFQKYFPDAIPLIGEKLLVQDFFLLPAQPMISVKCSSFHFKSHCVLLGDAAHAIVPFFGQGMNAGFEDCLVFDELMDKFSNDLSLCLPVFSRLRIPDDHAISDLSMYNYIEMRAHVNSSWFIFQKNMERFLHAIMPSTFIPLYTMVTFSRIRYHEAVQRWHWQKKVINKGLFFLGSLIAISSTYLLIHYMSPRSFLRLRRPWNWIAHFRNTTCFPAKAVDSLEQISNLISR
Kynurenine 3-monooxygenase (Rattus norvegicus, UniProt O88867), sequence (O88867 whole entry, the tested form may be a part): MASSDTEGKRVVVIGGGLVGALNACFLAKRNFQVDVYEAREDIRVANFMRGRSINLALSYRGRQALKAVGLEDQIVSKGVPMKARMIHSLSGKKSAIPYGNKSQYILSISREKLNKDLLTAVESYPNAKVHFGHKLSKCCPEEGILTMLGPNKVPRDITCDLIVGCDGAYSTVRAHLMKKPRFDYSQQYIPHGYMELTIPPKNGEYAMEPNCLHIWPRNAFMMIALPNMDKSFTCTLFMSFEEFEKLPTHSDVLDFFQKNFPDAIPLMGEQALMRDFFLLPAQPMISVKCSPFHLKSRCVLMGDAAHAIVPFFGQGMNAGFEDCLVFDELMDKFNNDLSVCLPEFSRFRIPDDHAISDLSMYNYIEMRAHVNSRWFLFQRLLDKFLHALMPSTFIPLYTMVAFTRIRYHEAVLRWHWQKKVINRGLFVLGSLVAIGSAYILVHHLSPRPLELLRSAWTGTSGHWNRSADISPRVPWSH
Tryptophan 2,3-dioxygenase (Homo sapiens), sequence (P48775 whole entry, looked up): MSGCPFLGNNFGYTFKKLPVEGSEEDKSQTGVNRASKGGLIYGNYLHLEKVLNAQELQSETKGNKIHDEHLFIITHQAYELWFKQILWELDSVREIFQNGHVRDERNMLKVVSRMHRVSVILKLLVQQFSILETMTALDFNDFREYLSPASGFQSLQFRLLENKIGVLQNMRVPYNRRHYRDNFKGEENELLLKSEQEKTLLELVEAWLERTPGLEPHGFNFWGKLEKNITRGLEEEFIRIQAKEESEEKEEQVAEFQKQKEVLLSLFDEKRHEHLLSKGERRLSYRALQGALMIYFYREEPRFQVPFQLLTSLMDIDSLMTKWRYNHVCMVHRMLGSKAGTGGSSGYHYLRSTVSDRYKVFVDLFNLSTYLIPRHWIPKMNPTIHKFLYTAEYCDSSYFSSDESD

- inhibition [8]: inactive
- inhibition (Homo sapiens): inactive
- inhibition [14]: inactive
- T1/2 [15]: 10 h
- inhibition [18]: inactive
- inhibition [23]: inactive
Structure (SMILES): C[C@@H](Oc1cc2onc(CCC(=O)O)c2cc1Cl)c1ccccn1
- Activity (Rattus norvegicus [1]): Active
- Activity (Rattus norvegicus [2]): Active
- Activity (Rattus norvegicus [3]): inactive
- Activity (Rattus norvegicus [4]): Active
- Activity (Rattus norvegicus [5]): inactive
- Activity (Rattus norvegicus [6]): Active
- inhibition (Rattus norvegicus [7]): Active
- Activity (Rattus norvegicus [9]): inactive
- inhibition (Rattus norvegicus [10]): Dose-dependent effect
- inhibition (Rattus norvegicus [11]): Active
- Activity (Rattus norvegicus [12]): Active
- inhibition (Rattus norvegicus [13]): Active
- Activity (Rattus norvegicus [16]): Dose-dependent effect
- Activity (Rattus norvegicus [17]): Active
- Activity (Rattus norvegicus [19]): Active
- Activity (Rattus norvegicus [20]): Active
- Activity (Rattus norvegicus [21]): Dose-dependent effect
- Activity (Rattus norvegicus [22]): Active

- Ki [24]: 0.045 µM
- Cp(f) (Plasma [25]): 405 nM
- half-life [26]: 5.8 h
- fraction unbound [27]: 0.022
- clearance [28]: 0.8 mL/min/kg
- half-life [29]: 6.6 h
- clearance [30]: 0.93 mL/min/kg
- half-life [31]: > 1000 h
- Vd [32]: 0.36 L/kg
- Vd [33]: 0.42 L/kg
- remaining at 12 h [34]: 97.7%
- Cp(f) (Plasma [35]): 3 nM
- Cp(f) (Plasma [36]): 50 nM
Structure (SMILES): C[C@@H](Oc1cc2onc(CCC(=O)O)c2cc1Cl)c1ccccn1 [GSK-065]

- concentration at 5 h [37]: 600000 nM
Structure (SMILES): C[C@@H](Oc1cc2onc(CCC(=O)O)c2cc1Cl)c1ccccn1.NCCO
